Source: patent publication US11446314B2, “Immunoablative therapies” (AVM Biotechnology LLC, priority 2018, dated 2022)
Entries after “also recorded” stand apart in the source; their conditions may differ.

What was measured:
RBC = details: doses of about 24 mg/50 kg; cited from earlier work
germinal centers [1] = assay: FITC-PNA staining of germinal centers in mouse spleen sections; assay type: in vivo; details: for HED dose from which germinal centers are reduced: acute dose, about; for Germinal Center staining intensity in spleen: 48 hours before spleen harvest
Description: FIG. 2. […] A graph of column plots of average Germinal Center staining intensity measured using immunofluorescent staining of fresh thick spleen sections stained with FITC-PNA is shown. Immunofluorescent intensity was calculated using thresholding and MetaMorph Image Analysis. Columns are average plus SEM.
The spleens were removed, weighed wet, and then fixed in 10% formalin. Subsequently the spleens were sectioned via proprietary methods and then incubated with FITC-PNA at 4 degC for 24 hours, washed, placed on slides and immunofluorescent images were captured. Metamorph software was used to quantify the immunofluorescent signal.

[2] = system: CD4+, CD8+, Tregs and B cells; assay: Preliminary dose escalation studies in naïve mouse and rat models; assay type: in vivo
lymphocytes [3] = assay: Flow cytometry of blood cells in human patients before and 48 hours after oral 3 mg/kg dexamethasone base
Source text: FIG. 14. […] Each patient's pre-treatment values are connected to post-treatment values by a connecting line. CD4+ cells are also CD3+. CD8+ cells are also CD3+.
FIG. 15. […] Each patient's pre-treatment values are connected to post-treatment values by a connecting line. Tregs are identified by being CD3+CD4+CD25+FoxP3+. B lymphocytes are identified by being CD3−CD19+.
FIG. 16. […] Each patient's pre-treatment values are connected to post-treatment values by a connecting line. NK cells are identified by being CD3−CD16/56+. HSCs are identified by being CD34+CD38−.
(§1) Blood was drawn before drug treatment and 48 hours post-treatment for CBC analysis and flow cytometry to determine lymphocyte and other blood cell populations. Serum was analyzed for cytokine levels.

IL-2, IL-15, IL-6 = system: IL-2, IL-15, IL-6
Description: as §1

[4] = system: bone marrow mesenchymal stem cells; assay: Horse sternal bone marrow MSC number and trilineage differentiation; assay type: in vivo; details: horses, 6 mg/kg HED, one hour IV infusion, 48 hours
[5] = Double-blind controlled horse trial; assay type: in vivo; details: horses, acute high dose, out to 70 days
[6] = Clinical chemistries in mice; assay type: in vivo, mouse
lymphocytes [7] = assay: Lymphodepletion in C57B1 female mice; assay type: in vivo, mouse; details: oral, HED 12, 15, 18 mg/kg tested
B lymphocytes = assay: Treatment of patients with autoimmune diseases (Examples 5 and 9); assay type: in vivo, human; details: patient with an autoimmune disease, acute high dose
Description: Acute high dose prednisone doses range from about 19 mg/kg to about 150 mg/kg, with doses between about 56 mg/kg and about 112 mg/kg being preferred, with a repeat (second) administration of this dose 24 hours later and an optional repeat (third) administration of this dose 48-72 hours after the initial dose.

[8] = system: peripheral blood lymphocytes
marginal zone = details: rats IV or PO 20, 40, 80 mg/kg (HED 3.23, 6.45, 12.9 mg/kg), 48 hours
Description: Formalin-fixed spleens were cross-sectioned in 5 pieces, trimmed and embedded in paraffin, sectioned and stained with hematoxylin and eosin (H&E). Measurements of the periarteriolar lymphoid sheath (PAL) diameter and the width of the marginal zone (MZ) in areas of white pulp that had PAL with the greatest diameter were measured using an ocular micrometer.

germinal centers [9] = details: rats IV or PO 20, 40, 80 mg/kg (HED 3.23, 6.45, 12.9 mg/kg), 48 hours
Description: Column plots of the area per spleen of BCL-6 staining of 5 micron fixed spleen sections as a measure of germinal center numbers given as average per section are shown.
Formalin-fixed spleens were cross-sectioned in 5 pieces, trimmed and embedded in paraffin, sectioned and stained with hematoxylin and eosin (H&E). Measurements of the periarteriolar lymphoid sheath (PAL) diameter and the width of the marginal zone (MZ) in areas of white pulp that had PAL with the greatest diameter were measured using an ocular micrometer. BCL-6 immunohistochemical staining in rat spleens was evaluated to determine GC area using automated image analysis methods.

[10] = system: peripheral blood T and B lymphocytes; details: single oral 0.24 mg/kg dose; cited from earlier work
pemphigus = details: 100 mgs by 2 hour IV infusion daily for 3 days, every 28 days until cure; cited from earlier work
spleen cellularity = details: cited from earlier work
[11] = system: bone marrow mesenchymal stem cells; assay: Human bone marrow MSC number by CFU-F; details: oral 3 mg/kg dexamethasone base, 48 hours, vs 31 historical controls
hematopoietic stem cells = assay: Live hematopoietic stem cells in naïve mice; details: 48 hours, low or high doses vs placebo
[12] = pharmacodynamic (biologic); cited from earlier work
[13] = system: spleen weights or germinal centers; details: mice, po daily for 13 weeks; cited from earlier work
[14] = oral 3 mg/kg dexamethasone base, 48 hours

C[C@H]1C[C@H]2[C@@H]3CCC4=CC(=O)C=C[C@]4(C)[C@@]3(F)[C@@H](O)C[C@]2(C)[C@@]1(O)C(=O)CO [betamethasone]
effect on RBC (RBC): reduces RBC

C[C@@H]1C[C@H]2[C@@H]3CCC4=CC(=O)C=C[C@]4(C)[C@@]3(F)[C@@H](O)C[C@]2(C)[C@@]1(O)C(=O)CO [dexamethasone]
HED dose from which germinal centers are reduced (germinal centers [1]): ≥ 6 mg/kg
HED dose from which germinal centers are reduced (germinal centers [1]; listed as Dexamethasone): ≥ 3 mg/kg
Germinal Center staining intensity in spleen (germinal centers [1]; mice, HED 6 mg/kg): Germinal center reduction is apparent
Germinal Center staining intensity in spleen (germinal centers [1]; mice, HED 9 and 12 mg/kg): not significantly reduced until HED of 9 and 12 mg/kg doses; also recorded: significantly reduced
FITC-PNA immunofluorescence (germinal centers) in spleen (germinal centers [1]; mice, IP HED 9.3 mg/kg dexamethasone base, 96 hours before spleen harvest): almost no immunofluorescent signal
effects of oral dosing compared to IV dosing ([2]; acute high dose): comparable effects
reduction in CD4+, CD8+, Tregs and B cells population ([2]; high doses, 48 hours after administration): ~98%
lymphodepletion ([2]; high-dose dexamethasone, naïve mouse and rat models): complete lymphodepletion
patients who showed lymphocytosis (lymphocytes [3]; 3 mg/kg HED): 50%
hematopoietic stem cells (CD34+CD38−) (lymphocytes [3]; [14]): spared
patients who depleted CD3, CD4 and CD8 positive lymphocytes (lymphocytes [3]; [14]): 2 of 4
patients who depleted NK cells (lymphocytes [3]; [14]): 3 of 4
patients who depleted Tregs and B lymphocytes (lymphocytes [3]; [14]): 1 of 4
patients with lymphocytosis response in CD3 and CD4 lymphocytes (lymphocytes [3]; oral 3 mg/kg, 48 hours): 2 of 4
patients with lymphocytosis response in CD8, B lymphocytes and NK cells (lymphocytes [3]; oral 3 mg/kg, 48 hours): 1 of 4
patients who responded with lymphodepletion (lymphocytes [3]; oral 3 mg/kg, 48 hours, un-normalized flow cytometry data): 2 of the 4
dose at which plasma IL-2 and IL-15 cytokine elevations are observed (IL-2, IL-15, IL-6; dexamethasone base, HED, about): ≥ 3 mg/kg
patients with elevated levels of IL-2 (IL-2, IL-15, IL-6; [14]): 3 of 4
patients with elevated levels of IL-15 (IL-2, IL-15, IL-6; [14]): 4 of 4
patients with increased serum IL-2 and/or IL-15 levels (IL-2, IL-15, IL-6; [14]): 100%
levels of plasma IL-2 and IL-15 cytokines (IL-2, IL-15, IL-6; small number of human osteoarthritis patients, acute high dose): elevates
sternal BM MSC stem cell number [4]: doubled
adverse side effects [5]: no adverse side effects were observed
glucose level ([6]; after acute high dose dexamethasone): not elevated over the normal range
clinical chemistry levels including cholesterol and total protein ([6]; mice, acute oral HED doses 6-12 mg/kg): do not elevate clinical chemistry levels out of normal range
dose above which lymphoablation is completely evident (lymphocytes [7]): above 18 mg/kg
reduction of B lymphocyte numbers (B lymphocytes): greater than 90%
reduction of memory B cell populations (B lymphocytes): greater than 90%
CD3+ T lymphocytes ([8]; IP 10 mg/kg (HED 0.81 mg/kg) on day −6, −4, −2, control 3370): 2441 live events
B lymphocytes (CD3−CD19+ cells) in the peripheral blood ([8]; IP 10 mg/kg (HED 0.81 mg/kg) on day −6, −4, −2, vehicle control 10680): 3733 live events
reduction of B lymphocytes ([8]; IP 10 mg/kg (HED 0.81 mg/kg) on day −6, −4, −2, vs vehicle, significant): 65%
CD3+CD4+CD25+FoxP3+ Tregs ([8]; same dosing, control 198): 70 live events
CD3+CD8 T lymphocytes ([8]; same dosing, control 1318): 1277 live events
CD3+CD4+ T lymphocytes ([8]; same dosing, control 1779): 902 live events
marginal zone area (width) in spleen (marginal zone): reduced at all dexamethasone doses
germinal center area (BCL-6 staining) in spleen (germinal centers [9]): reduced at all dexamethasone doses
suppression of peripheral blood T and B lymphocytes [10]: 80%
time at which recovery begins [10]: 12 h
time to normal levels [10]: ≤ 24 h
relapse rate (pemphigus): 15%
lymphodepletion in comparison to total body irradiation (spleen cellularity; HED 0.8 mg/kg on day −6, −4, −2): lymphodepleted equivalently to 5Gy TBI
reduced spleen cellularity (spleen cellularity; IP 10 mg/kg (HED 0.81 mg/kg) on day −6, −4, −2 before ACT): 99%
ileac crest bone marrow MSC number (CFU-F per ml) [11]: almost two fold; also recorded: about twice as high
number of live hematopoietic stem cells (hematopoietic stem cells): did not significantly alter

C[C@]12C=CC(=O)C=C1CC[C@@H]1[C@@H]2C(=O)C[C@@]2(C)[C@H]1CC[C@]2(O)C(=O)CO [prednisone]
reduction of B lymphocyte numbers (B lymphocytes): greater than 90%
reduction of memory B cell populations (B lymphocytes): greater than 90%
biologic half-life [12]: about 20 hours
dose above which spleen weights or germinal centers are significantly impacted [13]: over 2.5 mg/kg
